By IC50 is commonly meant the midpoint of a concentration-inhibition curve.

Where only a bound is given, the exact number is not on record here.

The test deals with T1, P2X7 (Homo sapiens, UniProt Q99572).
T1 construct: host or cells: SH-SY5Y
T1 sequence (Q99572 1-595): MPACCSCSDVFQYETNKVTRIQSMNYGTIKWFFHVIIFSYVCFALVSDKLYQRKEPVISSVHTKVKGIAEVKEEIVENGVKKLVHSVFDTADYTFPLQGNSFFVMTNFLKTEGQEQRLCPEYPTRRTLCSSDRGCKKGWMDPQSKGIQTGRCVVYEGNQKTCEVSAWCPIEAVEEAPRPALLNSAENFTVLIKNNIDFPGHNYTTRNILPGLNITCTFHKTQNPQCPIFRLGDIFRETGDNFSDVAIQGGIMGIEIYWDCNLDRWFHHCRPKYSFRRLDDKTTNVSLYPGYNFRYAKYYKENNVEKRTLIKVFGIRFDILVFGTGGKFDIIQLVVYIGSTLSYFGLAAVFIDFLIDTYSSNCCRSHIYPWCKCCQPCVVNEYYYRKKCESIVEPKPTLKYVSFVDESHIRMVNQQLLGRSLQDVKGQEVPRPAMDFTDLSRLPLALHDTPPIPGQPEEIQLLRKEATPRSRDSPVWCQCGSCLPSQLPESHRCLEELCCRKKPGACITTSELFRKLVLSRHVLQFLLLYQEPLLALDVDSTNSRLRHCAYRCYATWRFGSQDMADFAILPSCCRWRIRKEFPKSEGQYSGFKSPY
The test can be described thus: High Throughput P2X7 Calcium Mobilization Assay (Example 4A), antagonist activity. As to conditions: SH-SY5Y cells, 50% decrease in fluorescence response of cells exposed to 80 μM BzATP. In kind it is cell-based. The procedure: A. High Throughput P2X7 Calcium Mobilization Assay
SH-SY5Y cells, ATCC Number CRL-2266, (American Type Culture Collection, Manassas, Va.) are cultured under DMEM/High medium supplemented with 10% FBS, and 10 mM HEPES (Invitrogen Corp., Carlsbad, Calif.) in 5% CO2 and at 37° C. One day prior to the experiment, cells are plated at a density of 100,000 cells/well in a 96 well black/clear TC plate (Corning® Costar®, Sigma-Aldrich Co., St. Louis, Mo.). At the beginning of the experiment, the culture medium is removed and cells are incubated with 50 μL of 2.3 μM Fluo-4 AM dye (Invitrogen Corp.) in the assay solution (5 mM KCl, 9.6 mM NaH2PO4.H2O, 25 mM HEPES, 280 mM Sucrose, 5 mM Glucose, and 0.5 mM CaCl2; pH is adjusted to 7.4 with NaOH) for an hour at 37° C. After one hour dye incubation, wells are rinsed once with 50 μL assay solution, and are then incubated for an hour at room temperature with 100 μL assay solution containing the test compound. The final concentration of test compound generally ranges from 1 to 2500 nM; for positive control cells, no test compound is added. After the one hour incubation, plates are transferred to a FLIPR^TETRA instrument (Molecular Devices, Sunnyvale, Calif.) for calcium mobilization analysis.
For determination of antagonist activity, 50 μL of P2X7 agonist (2′(3′)-O-(4-benzoyl-benzoyl)adenosine 5′-triphosephate (BzATP; Sigma-Aldrich) in the assay solution is transferred using the FLIPR into the plate, such that the final agonist concentration is 80 μM (about EC50). In negative control cells, 50 μL of assay solution without agonist is added at this stage. The peak fluorescence signal over a 2 minute period is then measured.
First, the average maximum relative fluorescent unit (RFU) response from the negative control wells (no agonist) is subtracted from the maximum response detected for each of the other experimental wells. Second, average maximum RFU response is calculated for the positive control wells (agonist wells). Then, percent inhibition for each compound tested is calculated using the equation: Percent Inhibition=100−100×(Peak Signal in Test Cells/Peak Signal in Control Cells) The % inhibition data is plotted as a function of test compound concentration and test compound IC50 is determined using, for example, KALEIDAGRAPH software (Synergy Software, Reading, Pa.) best fit of the data to the equation: y=m1*(1/(1+(m2/m0)^m3)) where y is the percent inhibition, m0 is […], m1 is the maximum RFU, m2 corresponds to the test compound IC50 (the concentration required to provide a 50% decrease, relative to the response observed in the presence of agonist and without antagonist) and m3 is the Hill coefficient.
For `CC(C)N[C@@H]1CCN(C(=O)c2cc3c(C(=O)NCC45CC6CC(CC(C6)C4)C5)cccn3n2)C1` [Compound 16, N-(adamantan-1-ylmethyl)-2-{[(3R)-3-(isopropylamino)pyrrolidin-1-yl]carbonyl}pyrazolo [l,5-a]pyridine-4-carboxamide], the IC50 was at most 2000 nM.

As to `Cn1ncc2c1CCN(C(=O)c1cc3c(C(=O)NCC45CC6CC(CC(C6)C4)C5)cccn3n1)C2` [Compound 34, N-(adamantan-1-ylmethyl)-2-[(1-methyl-1,4,6,7-tetrahydro-5H-pyrazolo[4,3-c]pyridin-5-yl)carbonyl]pyrazolo [1,5-a]pyridine-4-carboxamide], the IC50 was at most 2000 nM.

In the case of “2-{[(3R)-3- aminopyrrolidin-1- yl]carbonyl}-N-[4- methyl-2-(4- methylphenyl)pentyl] pyrazolo[1,5-a]pyridine- 4-carboxamide [Compound 73]”, the half-maximal inhibitory concentration (IC50) is at most 2000 nM.

Turning to `CCOC(=O)CN(C)Cc1cc2c(C(=O)NCC34CC5CC(CC(C5)C3)C4)cccn2n1` [Compound 29, ethyl N-({4-[(adamantan-1-ylmethyl)carbamoyl]pyrazolo[1,5-a]pyridin-2-yl}methyl)-N-methylglycinate], the IC50 is at most 2000 nM.

For `O=C(NCC1(c2ccc(Cl)cc2)CCCCC1)c1cccn2nc(C(=O)N3CCn4cncc4C3)cc12` [Compound 83, N-{[1-(4-chlorophenyl)cyclohex-yl]methyl}-2-(5,6-dihydroimidazo[1,5-a]pyrazin-7(8H)-ylcarbonyl)pyrazolo [1,5-a]pyridine-4-carboxamide], the half-maximal inhibitory concentration (IC50) is at most 2000 nM.

As for `O=C1NCC2(CCN(C(=O)c3cc4c(C(=O)NCC56CC7CC(CC(C7)C5)C6)cccn4n3)CC2)O1` [Compound 36, N-(adamantan-1-ylmethyl)-2-[(2-oxo-1-oxa-3,8-diazaspiro[4.5]dec-8-yl)carbonyl]pyrazolo [1,5-a]pyridine-4-carboxamide], the 50% inhibitory concentration (IC50) is at most 2000 nM.

`CC(C)CC(CNC(=O)c1cccn2nc(C(=O)N3CC[C@@H](N)C3)cc12)c1ccccc1` (stereo partly drawn) [Compound 45, 2-{[(3R)-3-aminopyrrolidin-1-yl]carbonyl}-N-(4-methyl-2-phenylpentyl)pyrazolo [1,5-a]pyridine-4-carboxamide]: the concentration for half-maximal inhibition (IC50) is at most 2000 nM.

Take `O=C(CC12CC3CC(CC(C3)C1)C2)Nc1cccn2nc(C(=O)N3CCn4cncc4C3)cc12` [Compound 97, 2-adamantan-1-yl-N-[2-(5,6-dihydroimidazo[1,5-a]pyrazin-7(8H)-ylcarbonyl)pyrazolo [1,5-a]pyridin-4-yl]acetamide]: the half-inhibitory concentration (IC50) is at most 2000 nM.

In the case of `O=C(NCC12CC3CC(CC(C3)C1)C2)c1cccn2nc(C(=O)N3CCn4cnnc4C3)cc12` [Compound 24, N-(adamantan-1-ylmethyl)-2-(5,6-dihydro[1,2,4]triazolo [4,3-a]pyrazin-7(8H)-ylcarbonyl)pyrazolo [1,5-a]pyridine-4-carboxamide], the IC50 is at most 2000 nM.

In the case of `O=C(NCC12CC3CC(CC(C3)C1)C2)c1cccn2nc(C(=O)N3CCn4cncc4C3)cc12` [Compound 20, N-(adamantan-1-ylmethyl)-2-(5,6-dihydroimidazo[1,5-a]pyrazin-7(8H)-ylcarbonyl)pyrazolo [1,5-a]pyridine-4-carboxamide], the IC50 is at most 2000 nM.

As for `CC(C)CC(CNC(=O)c1cccn2nc(C(=O)N3CCOC(C)(C)C3)cc12)c1ccc(C(F)(F)F)cc1` (stereo not drawn) [Compound 101, 2-[(2,2-dimethylmorpholin-4-yl)carbonyl]-N-{4-methyl-2-[4-(trifluoromethyl)phenyl]pentyl}pyrazolo[1,5-a]pyridine-4-carboxamide], the IC50 is at most 2000 nM.

Regarding `CC(C)CC(CNC(=O)c1cccn2nc(C(=O)N(C)CCF)cc12)c1ccc(C(F)(F)F)cc1` (stereo not drawn) [Compound 86, 2-N-(2-fluoroethyl)-2-N-methyl-4-N-{4-methyl-2-[4-(trifluoromethyl)phenyl]pentyl}pyrazolo[1,5-a]pyridine-2,4-dicarboxamide], the half-maximal inhibitory concentration (IC50) was at most 2000 nM.
